According to US5681723A, “Mutant interleukin 6 with improved biological activity over wild interleukin 6” (Instituto di Ricerche di Biologia Molecolare P. Angelett …, priority 1992, dated 1997):

Legend:
[1] = test system: human hepatoma cell line Hep3B; test: CRP-CAT transcription induction assay in transfected human hepatoma Hep3B cells; assay type: cell-based; details: ratio of amounts of wild type hIL-6 and mutant giving half maximal stimulation of CRP-CAT in Hep3B cells; wild type = 100%
Procedure: The biological activity of the mutant of interest was determined first of all on cells of human origin. The activity of hIL-6 on human cells was assayed for its ability to enhance transcription from acute phase gene promoters in cells of hepatic origin (Morrone, G., Ciliberto, G., Oliviero, S., Arcone, R., Dente, L., Content, J. and Cortese, R. (1988) J. Biol. Chem. 263, 12554-12558). […]
In particular, human Hep3B cells were transfected with 45-50/ ug of the plasmid -219 CRP-CAT containing the IL-6 responsive element of the CRP promoter gene. […] After 16-18 hours, precipitates were removed, cells were trypsinized, pooled, counted and plated in equal number (10^5 to 3×10^5) in 5 cm diameter petri dishes; 7-9 hours after plating, cells were induced for 36-40 hours with increasing amounts of mutant or wild-type hIL-6. […]
The assay was carried out in duplicate (in triplicate in case of wild type hIL-6) with serial dilutions of two to four independent preparations of mutant. The activity of the mutant, expressed as a percent of wild type hIL-6, was calculated as the ratio between the amount of wild type hIL-6 and the amount of the mutant under examination necessary to give half maximal stimulation.

[2] = test system: soluble hIL6 receptor; test: hIL-6R binding (affinity for the soluble hIL6 receptor); parameters: species or system human; details: mutant hIL6 produced in E. coli
From the text: Affinity for the soluble hIL6 receptor of mutant hIL6 produced in E. coli

[3] = test system: murine hybridoma cell line 7TD1; test: HGF (Hybridoma Growth Factor) assay, growth of hIL-6 dependent hybridoma 7TD1; assay type: cell-based; details: murine hybridoma 7TD1, HGF assay
Procedure: Mutant interleukin 6 according to the present invention has also been tested using the classical HGF (Hybridoma Growth Factor) assay for its ability to stimulate growth of the hIL-6 dependent murine hybridoma cell line 7TD1 (Van Snick, J., Cayphas, S., Vink, A., Uyttenhove, C., Coulie, P. G. and Simpson, R. J. (1986) Proc. Natl. Acad. Sci. USA, 83, 9679-9683). The assay was performed taking into account the indications of Fiorillo, M. T., Cabibbo, A., Iacopetti, P., Fattori, E. and Ciliberto, G. (1992) Eur. J. Immunol. 22, 2609-2615.

Substance: S176R: mutant human interleukin 6 with arginine in position 176 in place of serine of wild interleukin 6 [Mutation S176R]
- Biological activity (% of wt hIL-6) [1]: 370±90 % of wt hIL-6
- hIL-6R binding (% of wt hIL-6) [2]: 320 ± 87 % of wt hIL-6
- ability to stimulate growth of hIL-6 dependent 7TD1 cells, with respect to the wild type [3]: significant increase in biological activity
